For experiment [1], the system named is C. elegans (L1). The experiment can be described thus: C. elegans L1 viability, three day protocol. Format: in vivo, Caenorhabditis elegans. The following applies: 72 hours, relative to no-drug controls; compounds 55-11, 55-12-21, 55-12-23.
Experiment [2] concerns P. pacificus (L1). The experiment can be described thus: P. pacificus L1 viability. In kind it is in vivo, Pristionchus pacificus. The note with it: 72 hours, relative to no-drug controls.
Experiment [3] relates to M. incognita (eggs). The experiment can be described thus: M. incognita egg-hatch assay. In kind it is in vivo, Meloidogyne incognita. The following applies: 45 uM of each compound, ~50 eggs per well; effect threshold not stated.
For experiment [4], the system named is C. elegans. Put plainly: C. elegans acute motor (rubber-band, convulsion/paralysis) phenotype on solid substrate. In kind it is in vivo, Caenorhabditis elegans. The note with it: solid substrate, 80 minutes; compounds 55-12-6, 55-12-9, 55-12-12, 55-12-21, 55-12-23. The source says: Worms are scored for the indicated phenotype (see legend); convulsions along the circumferential axis is characterized as the ‘shaker’ phenotype in C. elegans; convulsions along the anterior-posterior axis is characterized as the ‘rubber-band’ phenotype in C. elegans. 18 young-adult animals were scored at each time-point for rubber-band (animals spontaneously contract or do so upon touch on the nose with a platinum wire), hyperactive movement (observing rapid lateral nose movement) and shaker (spontaneous circumferential rotations). […] Data are showing the mean number of animals with each phenotype.
If a penetrant phenotype is observed, a dose-response analysis is performed; the EC50 is shown.
Each compound was added to the MYOB substrate before pouring to achieve desired concentration after diffusion through the media. The final concentration of dimethyl sulfoxide (DMSO) in each of the wells was […]. Young adult or fourth-staged larval worms are transferred into each well using a platinum wire pick.
˜25 young adult animals of each indicated strain were picked using a platinum wire onto 2% MYOB agar containing the indicated drug condition with 1% DMSO. […] 18 animals were scored per trial; data are the mean response of 2-3 replicates showing the standard error of the mean.

Experiment [5] concerns C. elegans (dauer). Put plainly: C. elegans dauer viability. In kind it is in vivo, Caenorhabditis elegans. The following applies: 72 hours, relative to no-drug controls.
Experiment [6] has as its system P. hermaphrodita (L1). Put plainly: P. hermaphrodita L1 viability. The following applies: 72 hours, relative to no-drug controls. In kind it is in vivo, Phasmarhabditis hermaphrodita.
Experiment [7] concerns C. elegans (adult). The experiment can be described thus: C. elegans adult viability. Format: in vivo, Caenorhabditis elegans. The note with it: 72 hours, relative to no-drug controls.
Experiment [8] deals with M. incognita (J2). The experiment can be described thus: M. incognita J2 viability in vitro. In kind it is in vivo, Meloidogyne incognita. The following applies: assay done using 45 uM; 48 or 72 hours; other compounds.
Experiment [9] relates to M. incognita. The experiment can be described thus: M. incognita Quick Soil Test (tomato). Format: in vivo, Meloidogyne incognita. The following applies: 45 uM, ~2000 J2 per tomato plant, worms in soil 4 days; other compounds.

Results on one compound are retold here after patent US12022832B2, “Compounds and methods for treating nematode infections” (The Governing Council of The University of Toronto, priority 2018, dated 2024).

As for `CCCc1ccc(-c2cccc(OC(F)F)c2)nc1` [IIIqq (wact-55-12-23), 2-(3-(difluoromethoxy)phenyl)-5-propylpyridine], in experiment [1], the “C. elegans (L1 viability): lowest concentration tested in which greater than 20% of animals were dead” value turned out to be 60 µM. Moreover, in [2], the “P. pacificus (L1 viability): lowest concentration tested in which at least 80% of animals were dead” value is 30 µM. In addition, in [3], the “M. incognita (Egg Hatch Rate)” value was “np” and the “M. incognita (Hatching Mobility)” value is “np”. In addition, the “C. elegans acute motor phene: concentration at which 10-50% of the animals exhibit convulsion/paralysis phenotypes” value in experiment [4] amounted to 60 μM. In experiment [5], the “C. elegans (dauer viability): lowest concentration tested in which at least 80% of animals were dead” value is given as “np”. The “P. hermaphrodita (L1 viability): lowest concentration tested in which at least 80% of animals were dead” value in experiment [6] is 15 µM. Also, in [7], the “C. elegans (adult viability): lowest concentration tested in which at least 80% of animals were dead” value is on record as “np”. Also, the “M. incognita (J2 viability in vitro): concentration giving >20% and <80% death” value in experiment [8] was “np”. Further, the “M. incognita (Quick Soil Test): concentration giving 10-20% killing” value in experiment [9] stood at 45 uM.
